Test results taken from PubChem BioAssay (NCI).
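48-hour exposure; five concentrations; linearly interpolated endpoints. The concentration for 50% growth inhibition is given as GI50. TGI is the concentration that stops growth completely.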

Key:
Test in all cases: growth of human tumour cells (NCI), 48 h
A549 NSCLC = test system: A549 NSCLC
CAKI-1 renal = test system: CAKI-1 renal
HCT-15 colon = test system: HCT-15 colon
HL-60(TB) leukemia = test system: HL-60(TB) leukemia
NCI-H460 lung = test system: NCI-H460 lung
SN12C renal = test system: SN12C renal
SW-620 colon = test system: SW-620 colon
T-47D breast = test system: T-47D breast
UACC-257 melanoma = test system: UACC-257 melanoma
UO-31 renal = test system: UO-31 renal

Cc1nc2cncc(C#Cc3cncc(C(=O)Nc4ccc(CN5CCN(C)CC5)c(C(F)(F)F)c4)c3)c2nc1C
GI50 (A549 NSCLC): 0.585 µM | TGI (A549 NSCLC): 7.28 µM | GI50 (CAKI-1 renal): 0.438 µM | TGI (CAKI-1 renal): 3.1 µM | GI50 (HCT-15 colon): 0.286 µM | TGI (HCT-15 colon): 5.92 µM | GI50 (HL-60(TB) leukemia): 0.237 µM | TGI (HL-60(TB) leukemia): 1.38 µM | GI50 (NCI-H460 lung): 0.354 µM | TGI (NCI-H460 lung): 6.34 µM | GI50 (SN12C renal): 0.275 µM | TGI (SN12C renal): 17 µM | GI50 (SW-620 colon): 0.284 µM | TGI (SW-620 colon): 1.64 µM | GI50 (T-47D breast): 1.24 µM | TGI (T-47D breast): 22.7 µM | GI50 (UACC-257 melanoma): 0.549 µM | TGI (UACC-257 melanoma): 3.56 µM | GI50 (UO-31 renal): 0.256 µM | TGI (UO-31 renal): 1.06 µM

C=C(C)C(=O)OC1CC2(C)OC2CC(OC(C)=O)/C(C)=C/C2OC(=O)C(=C)C21 (stereo not given)
TGI (A549 NSCLC): 42.5 µM | TGI (CAKI-1 renal): 9.84 µM | TGI (HCT-15 colon): 1.86 µM | TGI (HL-60(TB) leukemia): 1.14 µM | TGI (NCI-H460 lung): 9.29 µM | TGI (SN12C renal): 9.37 µM | TGI (SW-620 colon): 6.98 µM | TGI (T-47D breast): 14.4 µM | TGI (UACC-257 melanoma): 18.5 µM | TGI (UO-31 renal): 12.5 µM

COc1ccccc1/C=C1\CCC(CNc2ccc(Cl)cc2)C1=O (stereo not given)
TGI (A549 NSCLC): 17 µM | TGI (CAKI-1 renal): 13.6 µM | TGI (HCT-15 colon): 7.31 µM | TGI (HL-60(TB) leukemia): 13.9 µM | TGI (NCI-H460 lung): 20.9 µM | TGI (SN12C renal): 26.5 µM | TGI (SW-620 colon): 20 µM | TGI (UACC-257 melanoma): 26.7 µM | TGI (UO-31 renal): 16.1 µM

COc1cc2c(c(OC)c1OC)-c1ccc(NNC(=S)N(Cc3cccc(C[N+](Cc4cccc(CNC56CC7CC(CC(C7)C5)C6)c4)(Cc4cccc(CNC56CC7CC(CC(C7)C5)C6)c4)Cc4cccc(CN(C(=S)NNc5ccc6c(cc5=O)[C@@H](NC(C)=O)CCc5cc(OC)c(OC)c(OC)c5-6)C56CC7CC(CC(C7)C5)C6)c4)c3)C34CC5CC(CC(C5)C3)C4)c(=O)cc1[C@@H](NC(C)=O)CC2 (stereo not given in full)
GI50 (A549 NSCLC): 1.61 µM | TGI (A549 NSCLC): 6 µM | GI50 (CAKI-1 renal): 3.2 µM | TGI (CAKI-1 renal): 7.37 µM | GI50 (HCT-15 colon): 1.56 µM | TGI (HCT-15 colon): 5.96 µM | GI50 (HL-60(TB) leukemia): 0.168 µM | TGI (HL-60(TB) leukemia): 1.03 µM | GI50 (NCI-H460 lung): 1.22 µM | TGI (NCI-H460 lung): 3.79 µM | GI50 (SN12C renal): 2.23 µM | TGI (SN12C renal): 6.9 µM | GI50 (SW-620 colon): 0.814 µM | TGI (SW-620 colon): 2.06 µM | GI50 (T-47D breast): 1.83 µM | TGI (T-47D breast): 9.4 µM | GI50 (UACC-257 melanoma): 4.51 µM | TGI (UACC-257 melanoma): 10.3 µM | GI50 (UO-31 renal): 2.16 µM | TGI (UO-31 renal): 7.2 µM

Nc1c(C(=O)c2cccc(-c3ccc[n+]([O-])c3)c2)cnn1-c1ccc(F)cc1F
GI50 (A549 NSCLC): > 25 µM | TGI (A549 NSCLC): > 25 µM | GI50 (CAKI-1 renal): > 25 µM | TGI (CAKI-1 renal): > 25 µM | GI50 (HCT-15 colon): > 25 µM | TGI (HCT-15 colon): > 25 µM | GI50 (HL-60(TB) leukemia): > 25 µM | TGI (HL-60(TB) leukemia): > 25 µM | GI50 (NCI-H460 lung): > 25 µM | TGI (NCI-H460 lung): > 25 µM | GI50 (SN12C renal): > 25 µM | TGI (SN12C renal): > 25 µM | GI50 (SW-620 colon): > 25 µM | TGI (SW-620 colon): > 25 µM | GI50 (T-47D breast): > 25 µM | TGI (T-47D breast): > 25 µM | GI50 (UACC-257 melanoma): > 25 µM | TGI (UACC-257 melanoma): > 25 µM | GI50 (UO-31 renal): > 25 µM | TGI (UO-31 renal): > 25 µM

CS(=O)(=O)OCCN1CCN(C(=O)c2cccc3c(Nc4ccc(S(N)(=O)=O)cc4)c4ccccc4nc23)CC1
TGI (A549 NSCLC): > 100 µM | TGI (CAKI-1 renal): > 100 µM | TGI (HCT-15 colon): > 60.6 µM | TGI (HL-60(TB) leukemia): > 100 µM | TGI (NCI-H460 lung): > 100 µM | TGI (SN12C renal): > 100 µM | TGI (SW-620 colon): > 55.8 µM | TGI (UACC-257 melanoma): > 100 µM | TGI (UO-31 renal): > 100 µM

Nc1ccc(-c2nc3ccccc3[nH]2)c(O)c1
GI50 (A549 NSCLC): 35.3 µM | TGI (A549 NSCLC): > 100 µM | GI50 (CAKI-1 renal): 27.1 µM | TGI (CAKI-1 renal): 58.1 µM | GI50 (HCT-15 colon): > 100 µM | TGI (HCT-15 colon): > 100 µM | GI50 (HL-60(TB) leukemia): 40.4 µM | TGI (HL-60(TB) leukemia): > 100 µM | GI50 (NCI-H460 lung): 30.4 µM | TGI (NCI-H460 lung): > 100 µM | GI50 (SN12C renal): 42.4 µM | TGI (SN12C renal): > 100 µM | GI50 (SW-620 colon): 29.1 µM | TGI (SW-620 colon): > 100 µM | GI50 (UACC-257 melanoma): 18.6 µM | TGI (UACC-257 melanoma): 49.2 µM | GI50 (UO-31 renal): 43.8 µM | TGI (UO-31 renal): > 100 µM

c1cc(C2CCCCC2)ccc1OCCCCCCN1CCNCC1
GI50 (A549 NSCLC): 1.92 µM | TGI (A549 NSCLC): 3.65 µM | GI50 (CAKI-1 renal): 2.01 µM | TGI (CAKI-1 renal): 4.54 µM | GI50 (HCT-15 colon): 1.64 µM | TGI (HCT-15 colon): 3.25 µM | GI50 (HL-60(TB) leukemia): 1.54 µM | TGI (HL-60(TB) leukemia): 3.32 µM | GI50 (NCI-H460 lung): 1.84 µM | TGI (NCI-H460 lung): 3.43 µM | GI50 (SN12C renal): 1.79 µM | TGI (SN12C renal): 3.54 µM | GI50 (SW-620 colon): 1.78 µM | TGI (SW-620 colon): 3.4 µM | GI50 (T-47D breast): 2.14 µM | TGI (T-47D breast): 4.79 µM | GI50 (UACC-257 melanoma): 1.89 µM | TGI (UACC-257 melanoma): 3.68 µM | GI50 (UO-31 renal): 1.62 µM | TGI (UO-31 renal): 3.38 µM

Nc1ccc(N=Nc2ccccc2)c(N)n1
GI50 (A549 NSCLC): 27.4 µM | TGI (A549 NSCLC): > 100 µM | GI50 (HCT-15 colon): 35.8 µM | TGI (HCT-15 colon): > 100 µM | GI50 (HL-60(TB) leukemia): 27.5 µM | TGI (HL-60(TB) leukemia): > 100 µM | GI50 (NCI-H460 lung): 29.1 µM | TGI (NCI-H460 lung): 97.4 µM | GI50 (SN12C renal): 30.4 µM | TGI (SN12C renal): > 100 µM | GI50 (SW-620 colon): 28.6 µM | TGI (SW-620 colon): > 100 µM | GI50 (T-47D breast): 23.4 µM | TGI (T-47D breast): > 100 µM | GI50 (UACC-257 melanoma): 38.6 µM | TGI (UACC-257 melanoma): > 100 µM | GI50 (UO-31 renal): 13.7 µM | TGI (UO-31 renal): 43 µM

N#CCCN(CCC#N)c1ccc(/C=C2\N=C(COc3ccc(Cl)cc3Cl)OC2=O)cc1
TGI (A549 NSCLC): > 100 µM | TGI (CAKI-1 renal): > 100 µM | TGI (HCT-15 colon): > 100 µM | TGI (HL-60(TB) leukemia): > 100 µM | TGI (NCI-H460 lung): > 100 µM | TGI (SN12C renal): > 100 µM | TGI (SW-620 colon): > 100 µM | TGI (UACC-257 melanoma): > 100 µM | TGI (UO-31 renal): > 100 µM

CSc1ccc(-c2cc(-c3ccc(NC(=O)CCCN4CCCC4)cc3)nc(-c3ccc(NC(=O)CCCN4CCCC4)cc3)c2)cc1
GI50 (A549 NSCLC): 1.67 µM | TGI (A549 NSCLC): 3.17 µM | GI50 (CAKI-1 renal): 4.94 µM | TGI (CAKI-1 renal): 21.3 µM | GI50 (HL-60(TB) leukemia): 6.54 µM | TGI (HL-60(TB) leukemia): 23.5 µM | GI50 (NCI-H460 lung): 1.81 µM | TGI (NCI-H460 lung): 3.28 µM | GI50 (SN12C renal): 3.46 µM | TGI (SN12C renal): 17.1 µM | GI50 (SW-620 colon): 1.79 µM | TGI (SW-620 colon): 3.29 µM | GI50 (T-47D breast): 6.52 µM | TGI (T-47D breast): 21.7 µM | GI50 (UACC-257 melanoma): 4.94 µM | TGI (UACC-257 melanoma): 25.2 µM | GI50 (UO-31 renal): 15.5 µM | TGI (UO-31 renal): 37.8 µM

O=C1O[C@H](C(Cl)(Cl)Cl)N2CCCC12 (stereo not given in full)
TGI (A549 NSCLC): > 100 µM | TGI (CAKI-1 renal): > 100 µM | TGI (HCT-15 colon): > 100 µM | TGI (HL-60(TB) leukemia): > 100 µM | TGI (NCI-H460 lung): > 100 µM | TGI (SN12C renal): > 100 µM | TGI (SW-620 colon): > 100 µM | TGI (UACC-257 melanoma): > 100 µM | TGI (UO-31 renal): > 100 µM

O=[N+]([O-])c1cc(O)c(O)cc1-c1cn2ccsc2n1
GI50 (A549 NSCLC): 41.3 µM | TGI (A549 NSCLC): > 100 µM | GI50 (CAKI-1 renal): 38.4 µM | TGI (CAKI-1 renal): > 100 µM | GI50 (HCT-15 colon): 38.5 µM | TGI (HCT-15 colon): > 100 µM | GI50 (NCI-H460 lung): 46.9 µM | TGI (NCI-H460 lung): > 100 µM | GI50 (SN12C renal): 85.6 µM | TGI (SN12C renal): > 100 µM | GI50 (SW-620 colon): 45.6 µM | TGI (SW-620 colon): > 100 µM | GI50 (T-47D breast): > 100 µM | TGI (T-47D breast): > 100 µM | GI50 (UACC-257 melanoma): > 100 µM | TGI (UACC-257 melanoma): > 100 µM | GI50 (UO-31 renal): 34.1 µM | TGI (UO-31 renal): > 100 µM

Cn1cc(NC(=O)c2cc(NC(=O)Nc3cc(C(=O)Nc4cc(C(=O)NCCC(=N)N)n(C)c4)n(C)c3)cn2C)cc1C(=O)NCCC(=N)N
TGI (A549 NSCLC): 83.4 µM | TGI (CAKI-1 renal): 92.1 µM | TGI (HCT-15 colon): > 100 µM | TGI (HL-60(TB) leukemia): > 100 µM | TGI (NCI-H460 lung): 55.3 µM | TGI (SN12C renal): > 100 µM | TGI (SW-620 colon): > 100 µM | TGI (UACC-257 melanoma): 45.5 µM | TGI (UO-31 renal): > 100 µM

CC1=C(SCc2ccccc2)C(=O)c2ccccc2C1=O
TGI (CAKI-1 renal): 26.2 µM | TGI (HCT-15 colon): 43.5 µM | TGI (HL-60(TB) leukemia): > 100 µM | TGI (NCI-H460 lung): 51.6 µM | TGI (SN12C renal): 40.3 µM | TGI (SW-620 colon): > 100 µM | TGI (T-47D breast): > 100 µM | TGI (UACC-257 melanoma): 31.4 µM
